# Results as given in patent US20050250137A1, “Molecular targets of cancer and aging” (priority 2002, published 2005).
# System: nonimmortal cells
# Test: Senescence-like state in nonimmortal cells after 5Aza-dC
# Format: cell-based, human
# Conditions: nonimmortal cells treated with 5Aza-dC
compound,measurement,value
"Nc1ncn([C@H]2C[C@H](O)[C@@H](CO)O2)c(=O)n1 [5-aza-dC, 5-aza-2′-deoxycytidine]",induction of senescence-like state,does not result in an induction of an senescence-like state
